Numbers after ± are expanded uncertainties.
Conditions: dynamic light scattering

CCC(C)(C)OC [2-methoxy-2-methylbutane]
Conditions | thermal diffusivity [m2/s]
291.5 K, Liquid | 6.65e-08 ± 2.1e-09
302.19 K, Liquid | 6.36e-08 ± 2e-09
312.11 K, Liquid | 6.17e-08 ± 1.9e-09
323 K, Liquid | 5.95e-08 ± 1.9e-09
332.51 K, Liquid | 5.75e-08 ± 1.8e-09
342.71 K, Liquid | 5.5e-08 ± 1.7e-09
352.32 K, Liquid | 5.33e-08 ± 1.7e-09
363.24 K, Liquid | 5.18e-08 ± 1.7e-09
373.18 K, Liquid | 5e-08 ± 1.6e-09
382.92 K, Liquid | 4.84e-08 ± 1.6e-09
388.1 K, Liquid | 4.75e-08 ± 1.5e-09
392.6 K, Liquid | 4.68e-08 ± 1.5e-09
398.45 K, Liquid | 4.61e-08 ± 1.5e-09
402.91 K, Liquid | 4.55e-08 ± 1.5e-09
418.23 K, Liquid | 4.36e-08 ± 1.4e-09
423 K, Liquid | 4.3e-08 ± 1.4e-09
428.55 K, Liquid | 4.24e-08 ± 1.4e-09
432.78 K, Liquid | 4.2e-08 ± 1.4e-09
438.24 K, Liquid | 4.14e-08 ± 1.4e-09
442.67 K, Liquid | 4.1e-08 ± 1.4e-09
448.19 K, Liquid | 4.04e-08 ± 1.3e-09
453.53 K, Liquid | 3.98e-08 ± 1.3e-09
458.62 K, Liquid | 3.95e-08 ± 1.3e-09
463.3 K, Liquid | 3.9e-08 ± 1.3e-09
468.1 K, Liquid | 3.87e-08 ± 1.3e-09
472 K, Liquid | 3.83e-08 ± 1.3e-09
477.88 K, Gas | 2.54e-07
478.34 K, Liquid | 3.81e-08 ± 1.3e-09
482.92 K, Liquid | 3.78e-08 ± 1.3e-09
483.74 K, Gas | 2.3e-07
487.65 K, Gas | 2.13e-07
488.23 K, Liquid | 3.75e-08 ± 1.3e-09
492.26 K, Liquid | 3.71e-08 ± 1.3e-09
493.04 K, Gas | 1.9e-07
498.77 K, Liquid | 3.63e-08 ± 1.2e-09
499.05 K, Gas | 1.63e-07
501.9 K, Liquid | 3.6e-08 ± 1.2e-09
502.72 K, Gas | 1.45e-07
504.05 K, Liquid | 3.58e-08 ± 1.2e-09
506.94 K, Liquid | 3.52e-08 ± 1.2e-09
508.18 K, Gas | 1.21e-07
508.48 K, Liquid | 3.51e-08 ± 1.2e-09
511.05 K, Liquid | 3.42e-08 ± 1.2e-09
511.38 K, Gas | 1.05e-07
514.02 K, Liquid | 3.36e-08 ± 1.2e-09
517.41 K, Gas | 7.83e-08
517.73 K, Liquid | 3.2e-08 ± 1.1e-09
519.01 K, Liquid | 3.15e-08 ± 1.1e-09
522.19 K, Liquid | 2.98e-08 ± 1.1e-09
522.45 K, Gas | 4.2e-08

Liquid
Conditions | thermal diffusivity [m2/s]
373.1 K, 7000 kPa | 5.35e-08 ± 1.7e-09
373.11 K, 4000 kPa | 5.2e-08 ± 1.7e-09
373.12 K, 10000 kPa | 5.47e-08 ± 1.7e-09
382.8 K, 4000 kPa | 5.08e-08 ± 1.6e-09
382.83 K, 7000 kPa | 5.23e-08 ± 1.7e-09
382.94 K, 10000 kPa | 5.36e-08 ± 1.7e-09
392.61 K, 4000 kPa | 4.9e-08 ± 1.6e-09
392.63 K, 7000 kPa | 5.09e-08 ± 1.6e-09
392.73 K, 10000 kPa | 5.23e-08 ± 1.7e-09
402.72 K, 4000 kPa | 4.77e-08 ± 1.5e-09
402.77 K, 7000 kPa | 4.93e-08 ± 1.6e-09
402.81 K, 10000 kPa | 5.07e-08 ± 1.6e-09
412.73 K, 4000 kPa | 4.66e-08 ± 1.5e-09
412.76 K, 7000 kPa | 4.81e-08 ± 1.6e-09
412.86 K, 10000 kPa | 4.94e-08 ± 1.6e-09
422.87 K, 10000 kPa | 4.82e-08 ± 1.6e-09
423 K, 4000 kPa | 4.52e-08 ± 1.5e-09
423.06 K, 7000 kPa | 4.69e-08 ± 1.5e-09
432.66 K, 4000 kPa | 4.42e-08 ± 1.4e-09
432.76 K, 7000 kPa | 4.59e-08 ± 1.5e-09
432.8 K, 10000 kPa | 4.72e-08 ± 1.5e-09
442.61 K, 4000 kPa | 4.31e-08 ± 1.4e-09
442.7 K, 7000 kPa | 4.47e-08 ± 1.5e-09
442.73 K, 10000 kPa | 4.6e-08 ± 1.5e-09
453.25 K, 10000 kPa | 4.51e-08 ± 1.5e-09
453.47 K, 4000 kPa | 4.2e-08 ± 1.4e-09
453.58 K, 7000 kPa | 4.37e-08 ± 1.4e-09
463.14 K, 4000 kPa | 4.14e-08 ± 1.4e-09
463.21 K, 7000 kPa | 4.31e-08 ± 1.4e-09
463.25 K, 10000 kPa | 4.44e-08 ± 1.5e-09
472.15 K, 4000 kPa | 4.08e-08 ± 1.4e-09
472.25 K, 7000 kPa | 4.26e-08 ± 1.4e-09
472.35 K, 10000 kPa | 4.39e-08 ± 1.4e-09
478.13 K, 10000 kPa | 4.36e-08 ± 1.4e-09
478.14 K, 7000 kPa | 4.22e-08 ± 1.4e-09
478.39 K, 4000 kPa | 4.06e-08 ± 1.4e-09
483.16 K, 7000 kPa | 4.19e-08 ± 1.4e-09
483.16 K, 10000 kPa | 4.32e-08 ± 1.4e-09
483.31 K, 4000 kPa | 4.02e-08 ± 1.3e-09
488.17 K, 7000 kPa | 4.16e-08 ± 1.4e-09
488.18 K, 10000 kPa | 4.29e-08 ± 1.4e-09
488.54 K, 4000 kPa | 3.98e-08 ± 1.3e-09
492.58 K, 4000 kPa | 3.96e-08 ± 1.3e-09
493.13 K, 7000 kPa | 4.13e-08 ± 1.4e-09
493.14 K, 10000 kPa | 4.26e-08 ± 1.4e-09
498.16 K, 10000 kPa | 4.22e-08 ± 1.4e-09
498.25 K, 7000 kPa | 4.08e-08 ± 1.4e-09
499 K, 4000 kPa | 3.9e-08 ± 1.3e-09
503.15 K, 10000 kPa | 4.18e-08 ± 1.4e-09
503.16 K, 4000 kPa | 3.85e-08 ± 1.3e-09
503.2 K, 7000 kPa | 4.04e-08 ± 1.3e-09
508.09 K, 7000 kPa | 3.99e-08 ± 1.3e-09
508.14 K, 10000 kPa | 4.15e-08 ± 1.4e-09
508.25 K, 4000 kPa | 3.8e-08 ± 1.3e-09
512.28 K, 4000 kPa | 3.72e-08 ± 1.3e-09
512.29 K, 7000 kPa | 3.94e-08 ± 1.3e-09
512.53 K, 10000 kPa | 4.12e-08 ± 1.4e-09
517.79 K, 4000 kPa | 3.63e-08 ± 1.2e-09
517.85 K, 7000 kPa | 3.9e-08 ± 1.3e-09
518.05 K, 10000 kPa | 4.08e-08 ± 1.4e-09
523.25 K, 4000 kPa | 3.53e-08 ± 1.2e-09
523.25 K, 7000 kPa | 3.84e-08 ± 1.3e-09
523.25 K, 10000 kPa | 4.05e-08 ± 1.3e-09

Cc1ccccc1 [toluene]
Liquid
Conditions | thermal diffusivity [m2/s]
302.9 K | 8.63e-08 ± 2.6e-09
312.45 K | 8.33e-08 ± 2.5e-09
323.07 K | 8.03e-08 ± 2.4e-09
333.27 K | 7.77e-08 ± 2.4e-09
343.52 K | 7.52e-08 ± 2.3e-09
353.73 K | 7.3e-08 ± 2.2e-09
363.73 K | 7.09e-08 ± 2.2e-09
373.04 K | 6.9e-08 ± 2.1e-09
382.94 K | 6.71e-08 ± 2.1e-09
392.88 K | 6.52e-08 ± 2e-09
402.93 K | 6.33e-08 ± 2e-09
413.06 K | 6.15e-08 ± 1.9e-09
422.73 K | 5.98e-08 ± 1.9e-09
432.67 K | 5.81e-08 ± 1.8e-09
442.68 K | 5.64e-08 ± 1.8e-09
452.96 K | 5.48e-08 ± 1.7e-09
462.99 K | 5.33e-08 ± 1.7e-09
473.2 K | 5.19e-08 ± 1.7e-09
482.98 K | 5.06e-08 ± 1.6e-09
493.05 K | 4.94e-08 ± 1.6e-09
503.17 K | 4.84e-08 ± 1.6e-09
513.41 K | 4.74e-08 ± 1.5e-09
523.38 K | 4.66e-08 ± 1.5e-09

— the NIST ThermoML archive (doi:10.1021/acs.jced.6b00365)
